Experimental findings from PubChem BioAssay (NCI) are described below.

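The compound was tested at five concentrations on cells cultured in 96-well plates, with a 48-hour exposure period. Here, GI50 denotes the concentration required for 50% inhibition of growth. At the TGI there is no net growth.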 Bounds are passed on as bounds.

Some test systems named below: ACHN renal; EKVX NSCLC; HCC-2998 colon; HOP-92 NSCLC; MOLT-4 leukemia; SK-MEL-2 melanoma; SNB-75 CNS; SW-620 colon; TK-10 renal; UO-31 renal.
What all share (experiment): inhibition of tumour cell growth, NCI panel, 48 h

Consider `O=[N+]([O-])C(=C(Sc1ccccc1)Sc1ccccc1)C(Cl)=C(Cl)Cl`, for which the TGI is 0.895 µM in the test on ACHN renal; 5.15 µM in the test on EKVX NSCLC; 4.4 µM in the test on HCC-2998 colon; 5.99 µM in the test with HOP-92 NSCLC; 0.216 µM with MOLT-4 leukemia; 5.86 µM with SK-MEL-2 melanoma. Further, the TGI was determined as 10.7 µM with SNB-75 CNS, 0.228 µM in the test on SW-620 colon, 0.326 µM with TK-10 renal and 0.402 µM in the test on UO-31 renal.

Regarding `O=C(O)c1cc(S(=O)(=O)N=NC=C2c3ccccc3N(O)c3ccccc32)ccc1O`, the TGI is 59.6 µM in the test with ACHN renal; over 100 µM with EKVX NSCLC; 37.9 µM with HCC-2998 colon; 30.1 µM in the test on HOP-92 NSCLC; 45.1 µM in the test with MOLT-4 leukemia; 64.2 µM in the test on SK-MEL-2 melanoma. In addition, the TGI in the test on SNB-75 CNS is 7.77 µM; with SW-620 colon it was over 100 µM; in the test with TK-10 renal, 50 µM; in the test on UO-31 renal, 49.5 µM.

For `C/C(=N\NC(N)=S)c1ccc(C)cc1C`, the TGI in the test with ACHN renal, with EKVX NSCLC, with HCC-2998 colon, in the test with HOP-92 NSCLC, with MOLT-4 leukemia and with SK-MEL-2 melanoma was over 100 µM throughout. Further, the TGI in the test on SNB-75 CNS, in the test with SW-620 colon, with TK-10 renal and in the test on UO-31 renal was over 100 µM throughout.

In the case of `N#Cc1cnn2ccn(C3OC(COC(=O)c4ccccc4)C(OC(=O)c4ccccc4)C3OC(=O)c3ccccc3)c12` (stereo not given), the TGI in the test on ACHN renal is over 21.5 µM; in the test with EKVX NSCLC it was over 21.5 µM; with HCC-2998 colon it was over 21.5 µM; with HOP-92 NSCLC, over 31.6 µM; in the test with MOLT-4 leukemia, over 21.5 µM; with SK-MEL-2 melanoma it was 0.843 µM. Further, the TGI is 21.5 µM in the test on SNB-75 CNS, over 21.5 µM with SW-620 colon, over 31.6 µM with TK-10 renal and over 21.5 µM in the test with UO-31 renal.

In the case of `CN1CCCNCCN(CCc2ccccn2)CCCN(C)CC1`, the TGI in the test with ACHN renal, in the test on EKVX NSCLC, with HCC-2998 colon, in the test with HOP-92 NSCLC, with MOLT-4 leukemia and in the test on SK-MEL-2 melanoma was over 100 µM each time. The TGI in the test with SNB-75 CNS was over 100 µM; in the test with SW-620 colon, over 53.6 µM; in the test on TK-10 renal, over 100 µM; with UO-31 renal, over 100 µM.

For the molecule `CC(=O)OCC1OC(n2c(=S)[nH]c(-c3ccccc3)c(C#N)c2=O)C(OC(C)=O)C(OC(C)=O)C1OC(C)=O` (stereo not given), the TGI in the test on ACHN renal, with EKVX NSCLC, in the test on HCC-2998 colon, in the test with HOP-92 NSCLC, in the test with MOLT-4 leukemia and with SK-MEL-2 melanoma was over 100 µM in each case. The TGI in the test on SNB-75 CNS, in the test with SW-620 colon, with TK-10 renal and in the test on UO-31 renal was over 100 µM in each case.

Consider `O=C(O)Cc1c[nH]c2ccc(F)cc12`, for which the TGI in the test on ACHN renal, with EKVX NSCLC, with HCC-2998 colon, in the test with HOP-92 NSCLC, with MOLT-4 leukemia and in the test on SK-MEL-2 melanoma was over 100 µM throughout. Besides, the TGI in the test on SNB-75 CNS, in the test with SW-620 colon, in the test with TK-10 renal and with UO-31 renal was over 100 µM each time.

For `N#Cc1nc(-c2ccc(F)cc2)oc1S(=O)(=O)N1CCOCC1`, the GI50 with ACHN renal was 1.74 µM; with EKVX NSCLC, 13.8 µM; with HCC-2998 colon, 11.9 µM; in the test on HOP-92 NSCLC it was 2.66 µM; with MOLT-4 leukemia, 2.02 µM; in the test on SK-MEL-2 melanoma, 13.4 µM. The GI50 in the test with SNB-75 CNS was 10.2 µM; in the test with SW-620 colon it was 1.57 µM; in the test on TK-10 renal it was 1.75 µM; with UO-31 renal, 1.62 µM. Further, the TGI in the test with ACHN renal stood at 3.12 µM; with EKVX NSCLC, 37 µM; with HCC-2998 colon, 25.5 µM; with HOP-92 NSCLC, 9.48 µM; in the test on MOLT-4 leukemia, 5.49 µM; in the test with SK-MEL-2 melanoma it was 27.5 µM. Further, the TGI with SNB-75 CNS was determined as 22 µM; with SW-620 colon, 3.24 µM; in the test with TK-10 renal, 3.26 µM; with UO-31 renal it was 2.97 µM.

For the molecule `O=C(/C=C(\[O-])c1ccccc1)CCCCCCC(=O)/C=C(\[O-])c1ccccc1.O=C(/C=C(\[O-])c1ccccc1)CCCCCCC(=O)/C=C(\[O-])c1ccccc1.O=C(/C=C(\[O-])c1ccccc1)CCCCCCC(=O)/C=C(\[O-])c1ccccc1.[La+3].[La+3]`, the GI50 in the test with ACHN renal, with EKVX NSCLC, in the test on HCC-2998 colon, with HOP-92 NSCLC, in the test with MOLT-4 leukemia and in the test on SK-MEL-2 melanoma was over 50 µM in each case. Besides, the GI50 with SNB-75 CNS is 9.33 µM; in the test with SW-620 colon, over 50 µM; with TK-10 renal, over 50 µM; in the test with UO-31 renal, over 50 µM. The TGI with ACHN renal, in the test with EKVX NSCLC, in the test with HCC-2998 colon, with HOP-92 NSCLC, with MOLT-4 leukemia and in the test on SK-MEL-2 melanoma was over 50 µM each time. Also, the TGI was 48.2 µM with SNB-75 CNS, over 50 µM in the test with SW-620 colon, over 50 µM in the test on TK-10 renal and over 50 µM with UO-31 renal.
